Reference: US12655116B2, “Substituted isophthalic acid diamides” (Bayer Aktiengesellschaft, priority 2020, dated 2026)

Key:
ABUTH [1] = assay: Pre-emergence herbicidal action against ABUTH; format: in vivo, Abutilon theophrasti; settings: Abutilon theophrasti, 504 h; for pest or weed control at 80 g/ha: scored visually after 3 weeks vs untreated controls (100% = plants have died, 0% = like control plants); for pest or weed control at 20 g/ha: dosage 20 g/ha, scored visually after 3 weeks vs untreated controls, 100% = plants have died, 0% = like control plants, read-out: Pre-emergence action against ABUTH (herbicidal activity in percent)
Outline: (§1)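 Greenhouse pots of sandy loam held seeds covered with soil, onto which the compound was applied before emergence. An aqueous suspension or emulsion of WP or EC was used at 600 to 800 l/ha with 0.2% wetting agent. Percent damage was judged visually at 3 weeks.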

ALOMY [2] = assay: Pre-emergence herbicidal action against ALOMY; format: in vivo, Alopecurus myosuroides; settings: Alopecurus myosuroides, 504 h; 80 g/ha, pre-emergence, scored visually after 3 weeks vs untreated controls (100% = plants have died, 0% = like control plants)
Outline: as §1

AMARE [3] = assay: Pre-emergence herbicidal action against AMARE; format: in vivo, Amaranthus retroflexus; settings: Amaranthus retroflexus, 504 h, scored visually after 3 weeks vs untreated controls, 100% = plants have died, 0% = like control plants
Outline: as §1

AVEFA [4] = assay: Pre-emergence herbicidal action against AVEFA; format: in vivo, Avena fatua; settings: Avena fatua, 504 h; 80 g/ha, pre-emergence
Outline: as §1

ECHCG [5] = assay: Pre-emergence herbicidal action against ECHCG; format: in vivo, Echinochloa crus-galli; settings: Echinochloa crus-galli, 504 h, 80 g/ha
Outline: as §1

LOLRI [6] = assay: Pre-emergence herbicidal action against LOLRI; format: in vivo, Lolium rigidum; settings: Lolium rigidum, 504 h, 80 g/ha
Outline: as §1

MATIN [7] = assay: Pre-emergence herbicidal action against MATIN; format: in vivo, Matricaria inodora; settings: Tripleurospermum inodorum, 504 h; for pest or weed control at 20 g/ha: dosage 20 g/ha; for pest or weed control at 80 g/ha: dosage 80 g/ha
Outline: as §1

PHBPU [8] = assay: Pre-emergence herbicidal action against PHBPU; format: in vivo, Pharbitis purpurea; settings: Ipomoea purpurea, 504 h, dosage 80 g/ha
Outline: as §1

POLCO = assay: Pre-emergence herbicidal action against POLCO; format: in vivo, Polygonum convolvulus; settings: Fallopia convolvulus, 504 h, dosage 80 g/ha
Outline: as §1

SETVI [9] = assay: Pre-emergence herbicidal action against SETVI; format: in vivo, Setaria viridis; settings: Setaria viridis, 504 h; for pest or weed control at 20 g/ha: dosage 20 g/ha; for pest or weed control at 80 g/ha: dosage 80 g/ha
Outline: as §1

STEME [10] = assay: Pre-emergence herbicidal action against STEME; format: in vivo, Stellaria media; settings: Stellaria media, 504 h; for pest or weed control at 80 g/ha: dosage 80 g/ha
Outline: as §1

VERPE [11] = assay: Pre-emergence herbicidal action against VERPE; format: in vivo, Veronica persica; settings: Veronica persica, 504 h; for pest or weed control at 80 g/ha: dosage 80 g/ha
Outline: as §1

VIOTR [12] = assay: Pre-emergence herbicidal action against VIOTR; format: in vivo, Viola tricolor; settings: Viola tricolor, 504 h; for pest or weed control at 80 g/ha: dosage 80 g/ha
Outline: as §1

DIGSA [13] = assay: Pre-emergence herbicidal action against DIGSA; format: in vivo, Digitaria sanguinalis; settings: Digitaria sanguinalis, 504 h; for pest or weed control at 20 g/ha: dosage 20 g/ha; for pest or weed control at 80 g/ha: dosage 80 g/ha
Outline: as §1

ABUTH [14] = assay: Post-emergence herbicidal action against ABUTH; format: in vivo, Abutilon theophrasti; settings: Abutilon theophrasti, 504 h, visual assessment about 3 weeks after treatment vs untreated controls; for pest or weed control at 5 g/ha: dosage 5 g/ha; for pest or weed control at 20 g/ha: dosage 20 g/ha
Outline: (§2)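 Foliar application at one-leaf stage of formulated test compounds, aqueous spray at 600–800 l/ha with 0.2% wetting agent. Greenhouse, optimal conditions, ~3 weeks; damage scored visually in % relative to untreated plants.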

ALOMY [15] = assay: Post-emergence herbicidal action against ALOMY; format: in vivo, Alopecurus myosuroides; settings: Alopecurus myosuroides, 504 h, dosage 20 g/ha, visual assessment about 3 weeks after treatment vs untreated controls
Outline: as §2

AMARE [16] = assay: Post-emergence herbicidal action against AMARE; format: in vivo, Amaranthus retroflexus; settings: Amaranthus retroflexus, 504 h, 20 g/ha, visual assessment about 3 weeks after treatment, 100% = plants have died, 0% = like control plants
Outline: as §2

AVEFA [17] = assay: Post-emergence herbicidal action against AVEFA; format: in vivo, Avena fatua; settings: Avena fatua, 504 h, 20 g/ha, visual assessment about 3 weeks after treatment, 100% = plants have died, 0% = like control plants
Outline: as §2

ECHCG [18] = assay: Post-emergence herbicidal action against ECHCG; format: in vivo, Echinochloa crus-galli; settings: Echinochloa crus-galli, 504 h; for pest or weed control at 20 g/ha: dosage 20 g/ha
Outline: as §2

HORMU [19] = assay: Post-emergence herbicidal action against HORMU; format: in vivo, Hordeum murinum; settings: Hordeum murinum, 504 h, dosage 20 g/ha
Outline: as §2

LOLRI [20] = assay: Post-emergence herbicidal action against LOLRI; format: in vivo, Lolium rigidum; settings: Lolium rigidum, 504 h, dosage 20 g/ha
Outline: as §2

MATIN [21] = assay: Post-emergence herbicidal action against MATIN; format: in vivo, Matricaria inodora; settings: Tripleurospermum inodorum, 504 h, dosage 20 g/ha
Outline: as §2

PHBPU [22] = assay: Post-emergence herbicidal action against PHBPU; format: in vivo, Pharbitis purpurea; settings: Ipomoea purpurea, 504 h; for pest or weed control at 20 g/ha: dosage 20 g/ha
Outline: as §2

SETVI [23] = assay: Post-emergence herbicidal action against SETVI; format: in vivo, Setaria viridis; settings: Setaria viridis, 504 h; for pest or weed control at 5 g/ha: dosage 5 g/ha; for pest or weed control at 20 g/ha: dosage 20 g/ha
Outline: as §2

STEME [24] = assay: Post-emergence herbicidal action against STEME; format: in vivo, Stellaria media; settings: Stellaria media, 504 h
Outline: as §2

VERPE [25] = assay: Post-emergence herbicidal action against VERPE; format: in vivo, Veronica persica; settings: Veronica persica, 504 h, 20 g/ha
Outline: as §2

VIOTR [26] = assay: Post-emergence herbicidal action against VIOTR; format: in vivo, Viola tricolor; settings: Viola tricolor, 504 h
Outline: as §2

DIGSA [27] = assay: Post-emergence herbicidal action against DIGSA; format: in vivo, Digitaria sanguinalis; settings: Digitaria sanguinalis, 504 h
Outline: as §2

HORMU [28] = assay: Pre-emergence herbicidal action against HORMU; format: in vivo, Hordeum murinum; settings: Hordeum murinum, 504 h; 80 g/ha, pre-emergence
Outline: as §1

SMILES: CCNC(=O)c1c(C(F)(F)F)ccc(C(=O)Nc2nnnn2C)c1SC [Example 1-82]
- pest or weed control at 80 g/ha (ABUTH [1]): 100%
- pest or weed control at 20 g/ha (ABUTH [1]): 100%
- pest or weed control at 80 g/ha (ALOMY [2]): 80%
- pest or weed control at 20 g/ha (AMARE [3]): 90%
- pest or weed control at 80 g/ha (AMARE [3]): 100%
- pest or weed control at 80 g/ha (AVEFA [4]): 90%
- pest or weed control at 80 g/ha (ECHCG [5]): 100%
- pest or weed control at 80 g/ha (LOLRI [6]): 80%
- pest or weed control at 20 g/ha (MATIN [7]): 100%
- pest or weed control at 80 g/ha (MATIN [7]): 100%
- pest or weed control at 80 g/ha (PHBPU [8]): 80%
- pest or weed control at 80 g/ha (POLCO): 90%
- pest or weed control at 20 g/ha (SETVI [9]): 80%
- pest or weed control at 80 g/ha (SETVI [9]): 100%
- pest or weed control at 20 g/ha (STEME [10]; dosage 20 g/ha): 100%
- pest or weed control at 80 g/ha (STEME [10]): 100%
- pest or weed control at 80 g/ha (VERPE [11]): 90%
- pest or weed control at 20 g/ha (VIOTR [12]; dosage 20 g/ha): 100%
- pest or weed control at 80 g/ha (VIOTR [12]): 100%
- pest or weed control at 20 g/ha (DIGSA [13]): 100%
- pest or weed control at 80 g/ha (DIGSA [13]): 100%
- pest or weed control at 5 g/ha (ABUTH [14]): 90%
- pest or weed control at 20 g/ha (ABUTH [14]): 90%
- pest or weed control at 20 g/ha (ALOMY [15]): 90%
- pest or weed control at 20 g/ha (AMARE [16]): 90%
- pest or weed control at 20 g/ha (AVEFA [17]): 90%
- pest or weed control at 5 g/ha (ECHCG [18]; dosage 5 g/ha): 80%
- pest or weed control at 20 g/ha (ECHCG [18]): 90%
- pest or weed control at 20 g/ha (HORMU [19]): 90%
- pest or weed control at 20 g/ha (LOLRI [20]): 80%
- pest or weed control at 20 g/ha (MATIN [21]): 80%
- pest or weed control at 5 g/ha (PHBPU [22]; dosage 5 g/ha): 80%
- pest or weed control at 20 g/ha (PHBPU [22]): 90%
- pest or weed control at 5 g/ha (SETVI [23]): 80%
- pest or weed control at 20 g/ha (SETVI [23]): 90%
- pest or weed control at 20 g/ha (STEME [24]): 90%
- pest or weed control at 5 g/ha (STEME [24]; dosage 5 g/ha): 90%
- pest or weed control at 20 g/ha (VERPE [25]): 80%
- pest or weed control at 20 g/ha (VIOTR [26]): 90%
- pest or weed control at 5 g/ha (DIGSA [27]; 5 g/ha): 90%
- pest or weed control at 20 g/ha (DIGSA [27]): 90%

SMILES: Cn1nnnc1NC(=O)c1ccc(C(F)(F)F)c(C(=O)NC2CC2)c1Br [Example 1-209]
- pest or weed control at 80 g/ha (ABUTH [1]): 100%
- pest or weed control at 20 g/ha (ABUTH [1]): 100%
- pest or weed control at 80 g/ha (ALOMY [2]): 80%
- pest or weed control at 20 g/ha (AMARE [3]): 100%
- pest or weed control at 80 g/ha (AMARE [3]): 100%
- pest or weed control at 80 g/ha (AVEFA [4]): 100%
- pest or weed control at 80 g/ha (ECHCG [5]): 90%
- pest or weed control at 80 g/ha (HORMU [28]): 80%
- pest or weed control at 20 g/ha (MATIN [7]): 80%
- pest or weed control at 80 g/ha (MATIN [7]): 100%
- pest or weed control at 80 g/ha (PHBPU [8]): 80%
- pest or weed control at 20 g/ha (SETVI [9]): 90%
- pest or weed control at 80 g/ha (SETVI [9]): 100%
- pest or weed control at 80 g/ha (STEME [10]): 90%
- pest or weed control at 20 g/ha (VERPE [11]; dosage 20 g/ha): 90%
- pest or weed control at 80 g/ha (VERPE [11]): 100%
- pest or weed control at 80 g/ha (VIOTR [12]): 100%
- pest or weed control at 20 g/ha (DIGSA [13]): 100%
- pest or weed control at 80 g/ha (DIGSA [13]): 100%
- pest or weed control at 5 g/ha (ABUTH [14]): 90%
- pest or weed control at 20 g/ha (ABUTH [14]): 100%
- pest or weed control at 20 g/ha (ALOMY [15]): 80%
- pest or weed control at 20 g/ha (AMARE [16]): 100%
- pest or weed control at 20 g/ha (ECHCG [18]): 90%
- pest or weed control at 20 g/ha (LOLRI [20]): 80%
- pest or weed control at 20 g/ha (PHBPU [22]): 90%
- pest or weed control at 5 g/ha (SETVI [23]): 100%
- pest or weed control at 20 g/ha (SETVI [23]): 100%
- pest or weed control at 20 g/ha (STEME [24]): 90%
- pest or weed control at 20 g/ha (VERPE [25]): 80%
- pest or weed control at 5 g/ha (VIOTR [26]; 5 g/ha): 100%
- pest or weed control at 20 g/ha (VIOTR [26]): 100%
- pest or weed control at 20 g/ha (DIGSA [27]): 90%
